This passage reports T/C results from PubChem BioAssay AID280 (DTP/NCI, 2004).

The experiment relates to nude mice, LOX melanoma ip, survival T/C. Kind of experiment: NCI In Vivo Anticancer Drug Screen. Data for tumor model Human Amelanotic Melanoma (LOX) (intraperitoneal) in NU/NU BALB/C (nude) mice. Particulars: endpoint: median survival time, higher = longer survival. As to the method: The antitumor activity of compounds was measured in mice bearing transplantable tumors. Survival or tumor size were measured and the results are expressed as the measurement made in the treated group (T) divided by the measurement made in the vehicle treated control group (C). The tumor model used in this assay is Human Amelanotic Melanoma (LOX) (intraperitoneal) in NU/NU BALB/C (nude) mice

Setting [1] is: dose: 37.5 mg/kg/injection, schedule: Q04DX003 (ip), vehicle: saline with Tween-80.
[2] abbreviates: dose: 75.0 mg/kg/injection, schedule: Q04DX003 (ip), vehicle: saline with Tween-80.
[3] abbreviates: dose: 300.0 mg/kg/injection, schedule: Q04DX003 (ip), vehicle: saline with Tween-80.

Values joined by “and” are separate entries in the source; they are usually repeats but may differ in a detail not shown here. Equal entries are not always repeated. Toxic doses and inconclusive results are not listed.

For the molecule `COc1ccc2[nH]c3ccc4cc[n+](CCN5CCC(C6CCN(CC[n+]7ccc8ccc9[nH]c%10ccc(OC)cc%10c9c8c7)CC6)CC5)cc4c3c2c1`, the T/C is 153 % of control (dose: 4.0 mg/kg/injection, schedule: Q04DX003 (ip), vehicle: water); 156 % of control (dose: 13.7 mg/kg/injection, schedule: Q04DX003 (ip), vehicle: water); 176 % of control (dose: 16.0 mg/kg/injection, schedule: Q04DX003 (ip), vehicle: water); 176 % of control (dose: 22.8 mg/kg/injection, schedule: Q04DX003 (ip), vehicle: water); 203 % of control (dose: 23.04 mg/kg/injection, schedule: Q04DX003 (ip), vehicle: water); 187 % of control (dose: 32.0 mg/kg/injection, schedule: Q04DX003 (ip), vehicle: water). Moreover, the T/C by setting is: (dose: 38.0 mg/kg/injection, schedule: Q04DX003 (ip), vehicle: water) 207 % of control; (dose: 38.4 mg/kg/injection, schedule: Q04DX003 (ip), vehicle: water) 223 % of control; (dose: 64.0 mg/kg/injection, schedule: Q04DX003 (ip), vehicle: water) 192 % of control.

Take `CN(C)[C@@H]1C(=O)C(C(=O)NCN2CCN(C(=N)N=C(N)N)CC2)=C(O)[C@@]2(O)C(=O)C3=C(O)c4c(O)cccc4[C@@](C)(O)[C@H]3C[C@@H]12`: the T/C is 114 % of control (dose: 1.25 mg/kg/injection, schedule: Q04DX003 (ip), vehicle: suspension in saline); 107 % of control (dose: 2.5 mg/kg/injection, schedule: Q04DX003 (ip), vehicle: suspension in saline); 112 % of control (dose: 3.6 mg/kg/injection, schedule: Q04DX003 (ip), vehicle: suspension in saline); 114 % of control (dose: 5.0 mg/kg/injection, schedule: Q04DX003 (ip), vehicle: suspension in saline); 105 % of control (dose: 6.0 mg/kg/injection, schedule: Q04DX003 (ip), vehicle: suspension in saline); 103 % of control and 100 % of control (dose: 10.0 mg/kg/injection, schedule: Q04DX003 (ip), vehicle: suspension in saline). Also, the T/C was 112 % of control (dose: 17.0 mg/kg/injection, schedule: Q04DX003 (ip), vehicle: suspension in saline) and 89 % of control (dose: 28.0 mg/kg/injection, schedule: Q04DX003 (ip), vehicle: suspension in saline).

Regarding `CO[C@@]12[C@H](COC(N)=O)C3=C(C(=O)C(C)=C(N)C3=O)N1C[C@@H]1N[C@@H]12`, the T/C reads like this: (dose: 1.34 mg/kg/injection, schedule: Q04DX003 (ip), vehicle: saline) 116 % of control; (dose: 1.34 mg/kg/injection, schedule: Q04DX003 (iv), vehicle: saline) 119 % of control; (dose: 2.0 mg/kg/injection, schedule: Q04DX003 (ip), vehicle: saline) 111 % of control; (dose: 2.0 mg/kg/injection, schedule: Q04DX003 (iv), vehicle: saline) 166 % of control; (dose: 3.0 mg/kg/injection, schedule: Q04DX003 (ip), vehicle: saline) 272 % of control; (dose: 3.0 mg/kg/injection, schedule: Q04DX003 (iv), vehicle: saline) 168 % of control. Moreover, the T/C was 116 % of control (dose: 4.5 mg/kg/injection, schedule: Q04DX003 (ip), vehicle: saline) and 150 % of control (dose: 4.5 mg/kg/injection, schedule: Q04DX003 (iv), vehicle: saline).

For the molecule `Cn1c2ccccc2c2ccc3c(c21)C(=O)C=CC3=O`, the T/C is 90 % of control (dose: 9.38 mg/kg/injection, schedule: Q04DX003 (ip), vehicle: saline with Tween-80); 94 % of control (dose: 18.75 mg/kg/injection, schedule: Q04DX003 (ip), vehicle: saline with Tween-80); 88 % of control under setting [1]; 112 % of control under setting [2]; 100 % of control (dose: 150.0 mg/kg/injection, schedule: Q04DX003 (ip), vehicle: saline with Tween-80).

For `CCC(NC(N)=O)C(CC)NC(N)=O` (stereo unspecified), the T/C was 103 % of control (dose: 3.13 mg/kg/injection, schedule: Q04DX003 (ip), vehicle: saline with Tween-80); 109 % of control (dose: 6.25 mg/kg/injection, schedule: Q04DX003 (ip), vehicle: saline with Tween-80); 105 % of control (dose: 25.0 mg/kg/injection, schedule: Q04DX003 (ip), vehicle: saline with Tween-80).

For the molecule `CC[C@@]1(O)C(=O)OCc2c1cc1n(c2=O)Cc2cc3ccccc3nc2-1`, the T/C (dose: 5.0 mg/kg/injection, schedule: Q04DX003 (ip), vehicle: saline with Tween-80) is 284 % of control.

For `CC(=O)OCC1OC(n2ncc(=O)[nH]c2=O)C(OC(C)=O)C1OC(C)=O` (stereo unspecified), the T/C was 99 % of control (dose: 75.0 mg/kg/injection, schedule: Q04DX003 (ip), vehicle: suspension in saline); 105 % of control (dose: 150.0 mg/kg/injection, schedule: Q04DX003 (ip), vehicle: suspension in saline); 104 % of control (dose: 300.0 mg/kg/injection, schedule: Q04DX003 (ip), vehicle: suspension in saline); 99 % of control (dose: 600.0 mg/kg/injection, schedule: Q04DX003 (ip), vehicle: suspension in saline); 95 % of control (dose: 1200.0 mg/kg/injection, schedule: Q04DX003 (ip), vehicle: suspension in saline).

With `Nc1ccc2ccc(NS(=O)(=O)N3CCCCC3)cc2c1`, the T/C is 154 % of control under setting [3] and 96 % of control (dose: 600.0 mg/kg/injection, schedule: Q04DX003 (ip), vehicle: saline with Tween-80).

Consider `COc1cc(NCc2ccc3nc(N)nc(N)c3c2C)cc(OC)c1OC`, for which the T/C (dose: 7.5 mg/kg/injection, schedule: Q04DX003 (ip), vehicle: Klucel (hydroxypropylcellulose) (HPC)) was 151 % of control; the T/C (dose: 15.0 mg/kg/injection, schedule: Q04DX003 (ip), vehicle: Klucel (hydroxypropylcellulose) (HPC)) was 118 % of control; the T/C (dose: 30.0 mg/kg/injection, schedule: Q04DX003 (ip), vehicle: Klucel (hydroxypropylcellulose) (HPC)) is 118 % of control; the T/C (dose: 60.0 mg/kg/injection, schedule: Q04DX003 (ip), vehicle: Klucel (hydroxypropylcellulose) (HPC)) is 123 % of control.

On to `N=C(N)c1ccc(N=Nc2c(O)ccc3cc(O)ccc23)cc1`, for which the T/C is 92 % of control (dose: 18.75 mg/kg/injection, schedule: Q04DX003 (ip), vehicle: Klucel (hydroxypropylcellulose) (HPC)); 102 % of control (dose: 37.5 mg/kg/injection, schedule: Q04DX003 (ip), vehicle: Klucel (hydroxypropylcellulose) (HPC)); 95 % of control (dose: 300.0 mg/kg/injection, schedule: Q04DX003 (ip), vehicle: Klucel (hydroxypropylcellulose) (HPC)).

`N/C(=N/N=C/c1cc(Br)cc(Br)c1O)NO`: the T/C (dose: 25.0 mg/kg/injection, schedule: Q04DX003 (ip), vehicle: suspension in saline) is 98 % of control; the T/C (dose: 50.0 mg/kg/injection, schedule: Q04DX003 (ip), vehicle: suspension in saline) was 96 % of control; the T/C (dose: 100.0 mg/kg/injection, schedule: Q04DX003 (ip), vehicle: suspension in saline) was 86 % of control.

Turning to `CCOC(=O)Nc1cc2c(c(N)n1)N=C(c1ccccc1)CN2`, the T/C reads like this: (dose: 0.94 mg/kg/injection, schedule: Q04DX003 (ip), vehicle: saline with Tween-80) 103 % of control; (dose: 1.88 mg/kg/injection, schedule: Q04DX003 (ip), vehicle: saline with Tween-80) 107 % of control; (dose: 3.75 mg/kg/injection, schedule: Q04DX003 (ip), vehicle: saline with Tween-80) 119 % of control; (dose: 7.5 mg/kg/injection, schedule: Q04DX003 (ip), vehicle: saline with Tween-80) 121 % of control.

Take `O=C(Nc1cc(Cl)ccc1C(=O)O)c1cccc(C[n+]2ccccc2)c1`: the T/C by setting is: under setting [1], 94 % of control and 100 % of control; under setting [2], 105 % of control and 90 % of control; under setting [3], 89 % of control.

As for `NCCCSc1ccccc1`, the T/C by setting is: (dose: 9.38 mg/kg/injection, schedule: Q01DX009 (ip), vehicle: saline) 94 % of control; (dose: 18.75 mg/kg/injection, schedule: Q01DX009 (ip), vehicle: saline) 99 % of control; (dose: 37.5 mg/kg/injection, schedule: Q01DX009 (ip), vehicle: saline) 99 % of control; (dose: 75.0 mg/kg/injection, schedule: Q01DX009 (ip), vehicle: saline) 94 % of control; (dose: 150.0 mg/kg/injection, schedule: Q01DX009 (ip), vehicle: saline) 89 % of control.

With `COc1cccc2c1C(=O)c1c(O)c3c(c(O)c1C2=O)C[C@](O)(C(=O)CO)CC3OC1CC(N)C(OC2CCCCO2)C(C)O1` (stereo partly specified), the T/C runs as follows: (dose: 0.94 mg/kg/injection, schedule: Q04DX003 (ip), vehicle: water) 122 % of control; (dose: 7.5 mg/kg/injection, schedule: Q04DX003 (ip), vehicle: water) 160 % of control; (dose: 15.0 mg/kg/injection, schedule: Q04DX003 (ip), vehicle: water) 150 % of control.
